Experimental data reported in US5213962A, “Purification, detection and methods of use of protease Nexin-2” (The Regents of the University of California, priority 1992, dated 1993).

Tested on: platelets
Experiment: Secretion of PN-2/βAPP from platelets after activation by agonists
Assay type: cell-based
Details: freshly washed platelets, 10 minutes
Method: Secretion on PN-2/βAPP from platelets after activation by the agonists collagen or thrombin was studied. Briefly, fresh platelets washed by albumin density gradient centrifugation and gel filtration were incubated for 30 minutes at 37° C. in the absence or presence of the combined metabolic inhibitors antimycin A (15 μg/ml), 2-deoxy-D-glucose (30 mM), and D-gluconic acid δ-lactone (10 mM). The platelets were then placed into a cuvette 37° C. water bath with stirring at 1,200 rpm, and collagen (20 μg/ml or α-thrombin U/ml) was added. After 10 minutes, the samples were centrifuged at 12,000×g for 4 minutes and supernatants were collected. Aliquots were removed and quantitated for PN-2/βAPP by incubation with ^125 I-EGF BP and analysis of complex formation by SDS-PAGE and autoradiography as in Example 15. Autoradiograms were aligned with dried gels; ^125 I-EGF BP:PN-2/βAPP complexes were located, excised and quantitated in a […]. Aliquots were also quantitated for platelet markers as follows: total adenine nucleotide (ADP/ATP) secretion was measured by the method of Homsen et al., Anal. Biochem., 46:489 (1972); low affinity platelet factor 4 (LA-PF4) secretion was quantitated by the method of Rucinski et al., Blood, 53:47 (1979); and cytosolic lactate dehydrogenase (LDH) loss was assessed by the procedure of Wroblewski and Ladue, Proc. Soc. Exper. […]

collagen
secretion of total PN-2/βAPP present in the platelets: approximately one-half

thrombin
secretion of total PN-2/βAPP present in the platelets: approximately one-half
